# Data reported in publication PMC4645181, “Spontaneous membrane-translocating peptides: influence of peptide self-aggregation and cargo polarity” (Scientific Reports, 2015).
# Where “and” joins values, the source holds several entries; their conditions need not be identical. Equal values may be shown once. Where a SMILES comes first, the peptide text is derived from it. The star is where a group is joined. X2 = CN(C)c1ccc2c(-c3ccc(N4C(=O)CC(*)C4=O)cc3C(=O)[O-])c3ccc(=[N+](C)C)cc-3oc2c1; X1 = CCOC(=O)c1cc2cc3c(cc2oc1=O)N(CC(=O)NCCN1C(=O)CC(*)C1=O)C(C)(C)CC3C
# Tests used:
# [1] = Critical Micelle Concentration by pyrene 1:3 ratio method; type: physicochemical; settings: water solutions, 25 °C, 5 × 10^−7 μM pyrene, excitation 335 nm, I1 373 nm / I3 385 nm, 0.5-100 μM peptide, center of Boltzmann sigmoid fit
# Method: All the peptide solutions were always freshly prepared and dye-labeled peptides were quantified by UV-Vis absorbance. Unlabeled peptides were quantified by amino acidic digestion obtained by the mineralization of a known amount of peptide (5–50 μg) dissolved in 200–500 μl of HCl 6 M, with the following conditions: temperature: 170 °C; time: 20 minutes. Finally, derivatized amino acids were detected by RP-HPLC (Jupiter 4 μm Proteo 90 Å column (250 × 4.6 mm; Phenomenex) with these solvents: water:TFA 100:0.01 v/v (eluent A)/acetonitrile:water:TFA 95:5:0.01 v/v (eluent B), flux 1 ml/min, and their identity was confirmed by electrospray mass spectroscopy. CMC values of peptide and labeled-peptide systems were then determined by the pyrene 1:3 ratio method. Fluorescence emission spectra at 25 °C of unlabeled and labeled peptide water solutions containing 5 × 10^−7 μM pyrene were recorded using an excitation wavelength of 335 nm. The intensities I1 and I3 were measured at the wavelengths corresponding to the first and third vibronic bands of pyrene (373 nm, emission range: 368–378 nm, and 385 nm, emission range: 380–390 nm, respectively). According to literature, the plot of the pyrene 1:3 ratio index as a function of the concentration of the surfactant can be described by a decreasing sigmoid of the Boltzmann type and indicates the transition from the monomeric to the aggregated form of the peptide. Experimental raw data were fitted using the OriginPro8 software, and the center of the sigmoid is identified as the characteristic CMC.
# [2] = test system: CHO-K1 cells; test: WST-8 Cell Viability Assay; type: cell-based, Chinese Hamster
# Method: Cytotoxicity of unlabeled peptides and dye-labeled peptides was evaluated by the WST-8 assay. CHO-K1 cell proliferation was evaluated by plating 5 × 10^3 cells per well in 96-well plates. After 24 hours in serum-containing DMEM-F12 medium, the cells were incubated with a serum-free DMEM-F12 solution of unlabeled or dye-labeled peptides for 2 hours at 37 °C. After the incubation, the medium was removed, cells were washed with PBS 1X and incubated for 2 hours at 37 °C with 100 μl of a 10%-solution of WST-8 dissolved in serum-containing DMEM-F12. Absorbance at 450 nm was measured using a multiplate reader (Microplate Reader, GloMax®-Discover and Explorer Systems, Promega). Cell viability was quantitatively determined by comparing peptide-treated cells with untreated cells (as a reference of 100% viability) and cells treated with dimethyl sulfoxide (DMSO) 20% v/v. Reported data represent the average of three independent experiments, in which three wells for each concentration were measured. Error bars represent the standard errors.
# [3] = Dynamic Light Scattering of peptide aggregates; type: physicochemical; settings: water solutions at 100 μM (above CMC), 25 °C, scattering angle 90°, average of five consecutive measurements
# Method: DLS measurements were performed at 25 °C in a 50-μL quartz cuvette on a Zetasizernano ZS DLS (Malvern Instrument) following the manufacturer’s instructions. Water solutions of labeled-peptide at 100 μM were analyzed with a single scattering angle of 90°. Each value reported is the average of five consecutive measurements.
# [4] = test system: CHO-K1 cells; test: Cell uptake / translocation by confocal fluorescence microscopy; type: cell-based, Chinese Hamster; settings: all concentrations tested (0.5-10 μM), serum-free medium, peptide from water stock, 20 min at 37 °C
# Method: Homogeneous peptide solutions used for translocation experiments were always freshly prepared. Purified dye-labeled peptides were pre-dissolved in 100–200 μl of water and sonicated for 15 minutes at 25 °C. Then they were quantified by UV-Vis absorbance (concentration ranging between 100 and 200 μM; for ATTO 425 Maleimide: ε436(water) = 45000 cm^−1M^−1, for TAMRA: ε543(water) = 80000 cm^−1M^−1). An appropriate amount from this stock water-solution was diluted in 200–300 μl of serum-free DMEM F-12 growth medium and then administered to cells. Ionic strength was adjusted to physiological values adding the required amount of 10X PBS buffer.
# Chinese Hamster Ovary (CHO-K1) and PgsA-745 cells were purchased from ATCC (reference numbers: CCL-61 and CRL-2242, respectively) and grown in DMEM F-12 medium supplemented with 10% of Fetal Bovine Serum (FBS) at 37 °C with 5% CO2, according to manufacturer’s instructions. […]
# Confocal imaging experiments were performed with a Leica TCS SP5 SMD inverted confocal microscope (Leica Microsystems) interfaced with a diode laser (Picoquant) for excitation at 405 nm. […] All images and videos collected were analyzed by ImageJ software version 1.440 (NIH Image; http://rsbweb.nih.gov/ij/). […] RICS correlation function was calculated by the SimFCS software, developed at the Laboratory for Fluorescence Dynamics (www.lfd.uci.edu). […]
# [5] = UV absorption of peptide in water after addition from DMSO stock (precipitation); type: physicochemical; settings: 2μM in water, added directly from DMSO stock, UV absorption versus addition from water solution; consistent with a precipitate
# Method: Fig S5: UV absorption spectra of TP2 at 2μM concentration in water, measured upon addition of the peptide directly from DMSO stock solution (blue trace) or from a water solution (black trace). Only this latter procedure yields the expected absorption spectrum (indicated by the dashed black line). […] This in turn is consistent with the formation of a stabilized phase that is not diffusing in solution, but likely under the form of a precipitate.
molecule,measurement,setting,value
"CN(C)c1ccc2c(-c3ccc(N4C(=O)C=CC4=O)cc3C(=O)[O-])c3ccc(N(C)C)cc3[o+]c2c1 [TAMRA, Tetramethylrhodamine-5-maleimide]",Critical Micelle Concentration (CMC),[1],~80 µM and 80 ± 14 µM
CCOC(=O)c1cc2cc3c(cc2oc1=O)N(CC(=O)NCCN1C(=O)CC(SC[C@H](NC(=O)CNC(=O)[C@H](CCCNC(=N)N)NC(=O)[C@H](CC(C)C)NC(=O)[C@H](CC(C)C)NC(=O)[C@H](CCCNC(=N)N)NC(=O)[C@H](CC(C)C)NC(=O)[C@H](Cc2ccc(O)cc2)NC(=O)[C@@H](NC(=O)[C@H](CC(C)C)NC(=O)[C@@H]2CCCN2)[C@@H](C)CC)C(=O)O)C1=O)C(C)(C)CC3C (stereo partly drawn) [TM9-ATTO 425] (H-PLIYLRLLRGC(X1)-OH),cell viability,[2]; 20 µM,60%
same,cell viability,[2]; 30 µM,40%
CC[C@H](C)[C@H](NC(=O)[C@H](CC(C)C)NC(=O)[C@@H]1CCCN1)C(=O)N[C@@H](Cc1ccc(O)cc1)C(=O)N[C@@H](CC(C)C)C(=O)N[C@@H](CCCNC(=N)N)C(=O)N[C@@H](CC(C)C)C(=O)N[C@@H](CC(C)C)C(=O)N[C@@H](CCCNC(=N)N)C(=O)NCC(=O)N[C@@H](CSC1CC(=O)N(c2ccc(-c3c4ccc(=[N+](C)C)cc-4oc4cc(N(C)C)ccc34)c(C(=O)[O-])c2)C1=O)C(=O)O (stereo partly drawn) [TM9-TAMRA] (H-PLIYLRLLRGC(X2)-OH; N-terminus and C-terminus assumed),Critical Micelle Concentration (CMC),[1],3.8 ± 0.5 µM
same,hydrodynamic radius (RH) from DLS,[3],135 ± 14 nm
same,uptake mechanism (confocal imaging),[4],only endocytosis is present
PLIYLRLLR-G-QF [TP2],Critical Micelle Concentration (CMC),[1],1.0 ± 0.2 µM
same,hydrodynamic radius (RH) from DLS,[3],163 ± 6 nm
same,peptide apparently lost upon direct addition from DMSO to water,[5],~60%
